# Biological target: T1, Dihydrofolate reductase (Escherichia coli (strain K12), UniProt P0ABQ4)
# T1 sequence (P0ABQ4 whole entry): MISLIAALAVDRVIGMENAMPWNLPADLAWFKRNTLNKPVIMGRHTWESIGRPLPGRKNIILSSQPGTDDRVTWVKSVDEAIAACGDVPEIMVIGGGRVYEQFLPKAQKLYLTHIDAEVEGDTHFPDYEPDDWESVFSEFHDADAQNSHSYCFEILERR
# Assay: ChEBML_54731
# Text: Apparent inhibitory (log 1/Ki) activity against Escherichia coli dihydrofolate reductase
row,SMILES,Ki
1,Nc1ncc(Cc2cc(OCc3ccccc3)cc(OCc3ccccc3)c2)c(N)n1,1.7 nM
2,COCCOc1cc(Cc2cnc(N)nc2N)ccc1OC,1.8 nM
3,CCCCOc1ccc(Cc2cnc(N)nc2N)cc1OC,0.977 nM
4,CCCOc1cc(Cc2cnc(N)nc2N)cc(Br)c1OC,1.1 nM
5,CCCCOc1cc(Cc2cnc(N)nc2N)cc(Br)c1OC,1.1 nM
6,CS(=O)(=O)Oc1ccc(Cc2cnc(N)nc2N)cc1,7.1 nM
7,COCCOc1ccc(Cc2cnc(N)nc2N)cc1OC,0.562 nM
8,COc1cc(Cc2cnc(N)nc2N)ccc1O,0.891 nM
9,CCCOc1cc(Cc2cnc(N)nc2N)cc(OCCC)c1,1.6 nM
10,Cc1cc(C)cc(Cc2cnc(N)nc2N)c1,8.9 nM
11,CCOc1cc(Cc2cnc(N)nc2N)cc(OCC)c1,0.776 nM
12,COc1ccc(Cc2cnc(N)nc2N)cc1OS(C)(=O)=O,1.1 nM
13,CCCOc1cc(Cc2cnc(N)nc2N)cc(OCC)c1,3.2 nM
14,"COc1ccc(Cc2cnc(N)nc2N)cc1OCc1ccccc1 [5-(3-Benzyloxy-4-methoxy-benzyl)-pyrimidine-2,4-diamine]",0.0977 nM
15,"COc1cc(Cc2cnc(N)nc2N)ccc1OCc1ccccc1 [5-(4-(benzyloxy)-3-methoxybenzyl)pyrimidine-2,4-diamine]",0.372 nM
16,"Nc1ncc(Cc2ccc(OCc3ccccc3)cc2)c(N)n1 [5-(4-(benzyloxy)benzyl)pyrimidine-2,4-diamine]",2 nM

# — BindingDB's records for doi:10.1021/jm00397a017 (Beijing Medical University, 1988)
